Data as given in ChEMBL document CHEMBL4130381, “Puromycin based inhibitors of aminopeptidases for the potential treatment of hematologic malignancies” (Eur J Med Chem, 2017).

What was measured:
[1] = test system: MOLT-4; test: cells; details: Homo sapiens, MOLT-4, 72 h
Description: Antiproliferative activity against human MOLT4 cells after 72 hrs by MTT assay

[2] = target: Puromycin-sensitive aminopeptidase (Homo sapiens, UniProt P55786); test: Inhibition of recombinant human N-terminal His6-MBP-tagged PSA expressed in Escherichia coli BL21 STAR (DE3) using 4-Ala-MNA as substrate measured for 30 mins by thefluorescence assay
[3] = test system: GFP protein synthesis; test: Toxicity in human HeLa cells expressing pCFE-GFP assessed as inhibition of GFP proetin synthesis at 25 uM incubated for 30 mins measured for 2 hrs by spectrophotometric method relative to control; assay type: cell-based
[4] = test system: HL-60; test: cells; details: Homo sapiens, HL-60, 72 h
Description: Antiproliferative activity against human HL60 cells after 72 hrs by MTT assay

[5] = Cytotoxicity against African green monkey Vero cells assessed as reduction in cell proliferation after 72 hrs by MTT assay; assay type: cell-based; details: chlorocebus sabaeus
[6] = target: Aminopeptidase N (Homo sapiens, UniProt P15144); test: Inhibition of recombinant human C-terminal His10-tagged APN (Lys69 to Lys967 residues) using Ala-AMC as substrate measured for 30 mins by fluorescence assay
[7] = test system: GFP protein synthesis; test: Toxicity in human HeLa cells expressing pCFE-GFP assessed as inhibition of GFP proetin synthesis at 10 uM incubated for 30 mins measured for 2 hrs by spectrophotometric method relative to control; assay type: cell-based

Chain of Puromycin-sensitive aminopeptidase (P55786 whole entry): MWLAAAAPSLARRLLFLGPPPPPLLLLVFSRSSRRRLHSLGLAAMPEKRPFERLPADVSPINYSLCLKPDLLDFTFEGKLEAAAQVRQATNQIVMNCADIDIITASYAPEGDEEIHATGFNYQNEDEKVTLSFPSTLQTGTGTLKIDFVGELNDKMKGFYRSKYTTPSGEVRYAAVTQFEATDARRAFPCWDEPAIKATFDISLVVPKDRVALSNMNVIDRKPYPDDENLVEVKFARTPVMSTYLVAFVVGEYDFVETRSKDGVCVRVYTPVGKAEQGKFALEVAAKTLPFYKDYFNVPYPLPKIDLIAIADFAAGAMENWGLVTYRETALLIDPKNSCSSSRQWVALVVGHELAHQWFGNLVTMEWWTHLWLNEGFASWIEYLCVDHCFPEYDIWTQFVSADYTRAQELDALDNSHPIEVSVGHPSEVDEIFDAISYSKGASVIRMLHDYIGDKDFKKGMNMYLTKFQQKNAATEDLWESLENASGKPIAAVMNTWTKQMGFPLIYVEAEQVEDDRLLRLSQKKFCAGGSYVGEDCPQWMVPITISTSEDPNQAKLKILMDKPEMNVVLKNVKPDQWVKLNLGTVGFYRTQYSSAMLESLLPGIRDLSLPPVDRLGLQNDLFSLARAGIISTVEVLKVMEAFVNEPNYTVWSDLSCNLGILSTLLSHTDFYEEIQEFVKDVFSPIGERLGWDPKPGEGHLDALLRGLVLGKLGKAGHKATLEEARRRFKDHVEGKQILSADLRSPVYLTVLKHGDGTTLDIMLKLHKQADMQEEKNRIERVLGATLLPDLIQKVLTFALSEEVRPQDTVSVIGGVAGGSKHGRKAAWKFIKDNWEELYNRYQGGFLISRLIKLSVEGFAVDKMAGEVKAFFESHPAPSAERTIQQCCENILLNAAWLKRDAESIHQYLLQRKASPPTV
Chain of Aminopeptidase N (P15144 whole entry): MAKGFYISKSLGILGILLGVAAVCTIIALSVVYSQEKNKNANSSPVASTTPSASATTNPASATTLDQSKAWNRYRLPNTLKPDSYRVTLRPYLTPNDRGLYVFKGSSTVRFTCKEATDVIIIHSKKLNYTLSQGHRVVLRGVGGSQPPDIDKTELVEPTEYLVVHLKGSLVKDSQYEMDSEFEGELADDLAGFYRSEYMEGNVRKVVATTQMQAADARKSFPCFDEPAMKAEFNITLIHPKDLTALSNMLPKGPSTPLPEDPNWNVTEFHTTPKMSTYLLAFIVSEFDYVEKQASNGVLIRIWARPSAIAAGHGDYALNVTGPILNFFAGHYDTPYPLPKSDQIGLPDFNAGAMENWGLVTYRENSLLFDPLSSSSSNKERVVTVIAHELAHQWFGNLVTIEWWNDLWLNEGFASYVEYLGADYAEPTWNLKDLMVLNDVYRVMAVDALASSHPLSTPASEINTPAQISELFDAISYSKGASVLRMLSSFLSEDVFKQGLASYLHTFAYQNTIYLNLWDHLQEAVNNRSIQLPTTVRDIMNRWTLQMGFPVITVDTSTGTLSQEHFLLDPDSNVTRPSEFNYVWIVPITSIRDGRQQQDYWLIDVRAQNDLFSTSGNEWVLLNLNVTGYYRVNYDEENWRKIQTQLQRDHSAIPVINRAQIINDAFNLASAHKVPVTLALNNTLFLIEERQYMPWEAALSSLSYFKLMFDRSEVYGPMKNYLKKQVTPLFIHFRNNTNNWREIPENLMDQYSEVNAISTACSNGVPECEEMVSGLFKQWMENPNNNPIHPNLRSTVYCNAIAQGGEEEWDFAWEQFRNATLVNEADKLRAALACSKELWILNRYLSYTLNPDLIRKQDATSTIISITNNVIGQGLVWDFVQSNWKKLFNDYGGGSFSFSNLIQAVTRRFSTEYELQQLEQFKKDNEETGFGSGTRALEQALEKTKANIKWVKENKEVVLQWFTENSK

| Compound | EC50 [1] | IC50 [2] | inhibition at 30 min, 25 µM [3] | EC50 [4] | CC50 at 72 h [5] | IC50 [6] | inhibition at 30 min, 10 µM [7] |
| --- | --- | --- | --- | --- | --- | --- | --- |
| CC(C)C[C@H](NC(=O)[C@@H](O)[C@H](N)Cc1ccccc1)C(=O)O [UBENIMEX] | > 100 µM | 3.5 µM | 28% | > 100 µM | 25 to 100 µM | – | – |
| CN(C)c1ncnc2c1ncn2[C@@H]1O[C@H](CO)[C@@H](NC(=O)[C@@H](N)Cc2ccccc2)[C@H]1O | 0.39 µM | – | 59% | 0.41 µM | 3.2 µM | – | – |
| CN(C)c1ncnc2c1ncn2[C@@H]1O[C@H](CO)[C@@H](NC(=O)[C@@H](N)CSC(c2ccccc2)c2ccccc2)[C@H]1O | 1.3 µM | – | 0% | 32 µM | > 100 µM | – | – |
| CN(C)c1ncnc2c1ncn2[C@@H]1O[C@H](CO)[C@@H](NC(=O)[C@H](N)CSC(c2ccccc2)c2ccccc2)[C@H]1O | 11 µM | – | 0% | 34 µM | 46 µM | – | – |
| CC(C)C[C@@H](C(=O)N[C@H](C(=O)OC1CCCC1)c1ccccc1)[C@H](O)C(=O)NO [TOSEDOSTAT] | 2.1 µM | 0.26 µM | 35% | 4.7 µM | 13 µM | 0.68 µM | – |
| CN(C)c1ncnc2c1ncn2[C@@H]1O[C@H](CO)[C@@H](NC(=O)[C@@H](N)CSC(c2ccccc2)(c2ccccc2)c2ccccc2)[C@H]1O | 31 µM | – | 0% | > 100 µM | > 100 µM | – | – |
| CN(C)c1ncnc2c1ncn2[C@@H]1O[C@H](CO)[C@@H](NC(=O)[C@H](N)CSCc2ccccc2)[C@H]1O | 14 µM | – | 0% | 46 µM | 17 µM | – | – |
| CN(C)c1ncnc2c1ncn2[C@@H]1O[C@H](CO)[C@@H](NC(=O)[C@H](N)CSC(c2ccccc2)(c2ccccc2)c2ccccc2)[C@H]1O | 14 µM | – | 0% | 10 µM | 15 µM | – | – |
| N[C@@H](CSC(c1ccccc1)c1ccccc1)C(=O)NCCCO | > 100 µM | – | 0% | > 100 µM | > 100 µM | – | – |
| CN(C)c1ncnc2c1ncn2[C@@H]1O[C@H](CO)[C@@H](NC(=O)[C@@H](N)CSCc2ccccc2)[C@H]1O | 0.18 µM | – | 30% | 0.19 µM | 0.88 µM | – | 30% |
| COc1ccc(C[C@H](N)C(=O)N[C@H]2[C@@H](O)[C@H](n3cnc4c(N(C)C)ncnc43)O[C@@H]2CO)cc1 [PUROMYCIN] | 0.17 µM | 9.7 µM | 99% | 0.055 µM | 2.8 µM | 41 µM | – |
